Test results: patent publication US9969758B2, “Antimicrobial compounds” (BIOMERIEUX, priority 2014, dated 2018)
Read-outs that look alike come from different tables or passages of the source.

Key:
Assay in all cases: MIC by agar dilution
[1] = tested on: E. coli (53); type: cell-based, Escherichia coli; conditions: E. coli (53)
Text: (§1) Bacterial isolates. […] These included Citrobacter freundii (n=5), other species of Citrobacter (n=4), Enterobacter aerogenes (n=1), Enterobacter cloacae (n=27), Escherichia coli (n=53), Klebsiella oxytoca (n=5), Klebsiella pneumoniae (n=87), Kluyvera spp (n=1), Proteus mirabilis (n=8), Providencia rettgeri (n=2), Salmonella spp (n=3), and Serratia marcescens (n=1). Among these 197 isolates, there were 128 (65%) carbapenemase producers, including; 87 with NDM-1, 9 with IMP, 11 with KPC, 14 with OXA-48 and 7 with VIM. The majority of the carbapenemase producers jointly produced broad-spectrum β-lactamases (BSBL) or cephalosporinases (AmpC β-lactamases), but the latter are not documented for the sake of clarity.
(§2) Determining the minimum inhibitory concentrations (MIC). All the MICs were determined using an agar dilution method. This required use of a medium without a defined antagonist (peptone-free), prepared as described previously with the inclusion of 2% horse blood lysed with saponin, 25.0 μg/mL of NAD and 25.0 μg/mL of hemin [17]. The compounds tested were dissolved in sterile deionised water and incorporated into the agar medium in a concentration range of 0.0031 to 8.0 μg/mL (0.016 to 32 μg/mL for gram-positive bacteria). All the isolates were prepared at a density equivalent to 0.5 McFarland units in sterile deionised water using a densitometer (approximately 1.5×10^8 CFU/mL), and then diluted to 1 for 15. An aliquot of 1 μL of each diluted suspension was then placed onto plates with a multispot inoculator to give the final recommended inoculation of 10 000 CFU/spot. The MICs of fosfomycin were determined by the same method, except that the IsoSensitest medium (Oxoid, Basingstoke, United Kingdom) was used, plus 25.0 μg/mL of glucose-6-phosphate (Sigma, Poole, United Kingdom) and an extended range of fosfomycin concentrations. All the dishes (including the antimicrobial-free controls) were incubated for 22 hours at 37° C. All the tests were performed on at least two independent replicates in order to examine the reproducibility.

[2] = tested on: K. pneumoniae (87); type: cell-based, Klebsiella pneumoniae; conditions: K. pneumoniae (87)
Text: as §1, §2

[3] = tested on: E. cloacae (27); type: cell-based, Enterobacter cloacae; conditions: E. cloacae (27)
Text: as §1, §2

[4] = tested on: AmpC (22); type: cell-based, Enterobacteriaceae
Text: as §1, §2

[5] = tested on: All S. aureus (50); type: cell-based, Staphylococcus aureus; conditions: All S. aureus (50)
Text: (§3) A collection of 50 isolates of Staphylococci aureus included 36 strains of methicillin-resistant S. aureus (MRSA) frequently encountered in Europe, including strains isolated in Belgium, Finland, France, Germany and the United Kingdom. Another strain of MRSA, NCTC 11939, was included as a control, as well as a methicillin-sensitive control (NCTC 6571). Twelve other isolates of methicillin-sensitive Staphylococcus aureus (MSSA) recently collected from blood cultures were also included. Finally, 50 isolates of enterococci included two control strains (Enterococcus faecalis NCTC 755 and Enterococcus faecium NCTC 7171) and 48 isolates originating from clinical samples obtained from at least three different hospitals. The clinical isolates included E. faecalis (n=10), E. faecium (n=33), Enterococcus casseliflavus (n=3), Enterococcus gallinarum (n=2).
as §2

[6] = tested on: All Enterococci (50); type: cell-based
Text: as §3, §2

[7] = tested on: glycopeptide-resistant enterococci; type: cell-based; conditions: GRE (43)
Text: as §3, §2

[8] = tested on: methicillin-resistant Staphylococcus aureus; type: cell-based
Text: as §3, §2

[9] = tested on: methicillin-sensitive Staphylococcus aureus; type: cell-based; conditions: MSSA (13)
Text: as §3, §2

[10] = tested on: E. faecalis (11); type: cell-based, Enterococcus faecalis; conditions: E. faecalis (11)
Text: as §3, §2

[11] = tested on: E. faecium (34); type: cell-based, Enterococcus faecium
Text: as §3, §2

[12] = tested on: Enterobacteriaceae (197); type: cell-based; conditions: Enterobacteriaceae (197)
Text: as §1, §2

[13] = tested on: Enterobacteriaceae with a broad-spectrum β-lactamase; type: cell-based
Text: as §1, §2

[14] = tested on: carbapenemase-producing Enterobacteriaceae; type: cell-based
Text: as §1, §2

[15] = read-out: Modal MIC (most frequent MIC)
[16] = Staphylococcus aureus, read-out: MIC50
[17] = Staphylococcus aureus, read-out: MIC90
[18] = Staphylococcus aureus, read-out: Modal MIC (most frequent MIC)

C[C@H](N)C(=O)N[C@@H](C)C(=O)N[C@@H](C)P(=O)(O)O [Di-alanyl fosfalin, L-alanyl-L-alanyl-L-1-aminoethylphosphonic acid]
0.5 to 32 µg/mL: MIC Range [5] | MIC Range ([8]; MRSA (37)) | MIC Range [9]
2 µg/mL: MIC90 [1] | MIC90 ([6]; All Enterococci (50)) | MIC90 ([11]; E. faecium (34))
16 µg/mL: MIC90 [5] | MIC90 ([8]; MRSA (37)) | MIC90 [9] | Modal MIC (most frequent MIC) [9]
0.031 µg/mL: Modal MIC (most frequent MIC) [10]
≤0.016-4 ^ μg/mL: MIC Range ([11]; E. faecium (34))
4 µg/mL: Modal MIC (most frequent MIC) [3] | Modal MIC (most frequent MIC) [5] | Modal MIC (most frequent MIC) ([8]; MRSA (37)) | concentration by which all isolates were inhibited ([11]; 34 E. faecium isolates (including 31 vancomycin-resistant))
0.25 µg/mL: Modal MIC (most frequent MIC) [1]
>32 µg/mL: MIC90 [7]
0.5 µg/mL: MIC50 [1] | MIC50 ([6]; All Enterococci (50)) | Modal MIC (most frequent MIC) ([6]; All Enterococci (50)) | MIC50 [7] | Modal MIC (most frequent MIC) [7] | MIC90 [10] | MIC50 ([11]; E. faecium (34)) | Modal MIC (most frequent MIC) ([11]; E. faecium (34))
256 times: MICs lower than those of alafosfalin, in certain cases ([6]; enterococci)
>8 µg/mL: MIC50 [2] | MIC90 [2] | Modal MIC (most frequent MIC) [2] | MIC50 [3] | MIC90 [3] | MIC50 ([4]; AmpC (22)) | MIC90 ([4]; AmpC (22)) | Modal MIC (most frequent MIC) ([4]; AmpC (22)) | MIC90 [12] | Modal MIC (most frequent MIC) [12] | MIC90 ([13]; BSBL (47)) | Modal MIC (most frequent MIC) ([13]; BSBL (47)) | MIC90 ([14]; CPE (128)) | Modal MIC (most frequent MIC) ([14]; CPE (128))
0.063 µg/mL: MIC50 [10]
8 µg/mL: MIC50 [5] | MIC50 ([8]; MRSA (37)) | MIC50 [9] | MIC50 [12] | MIC50 ([13]; BSBL (47)) | MIC50 ([14]; CPE (128))
~16 times: MICs lower than those of alafosfalin, on average ([6]; enterococci)

C[C@H](NC(=O)[C@H](CCl)NC(=O)[C@@H](N)CCl)P(=O)(O)O [β-Cl-Ala-β-Cl-Alafosfalin, β-chloro-L-alanyl-β-chloro-L-alanyl-L-1-aminoethylphosphonic acid]
2 µg/mL: MIC50 ([12]; read-out: MIC50) | MIC50 [14]
0.25 to 8 µg/mL: MIC Range [3]
8 µg/mL: MIC50 ([6]; All Enterococci (50), read-out: MIC50) | MIC ([6]; All Enterococci (50), read-out: Modal MIC (most frequent MIC)) | MIC50 ([7]; read-out: MIC50) | MIC50 ([11]; Enterococcus faecium, E. faecium (34), read-out: MIC50) | MIC90 ([11]; Enterococcus faecium, E. faecium (34), read-out: MIC90) | MIC ([11]; Enterococcus faecium, E. faecium (34), read-out: Modal MIC (most frequent MIC)) | MIC90 [14]
> 8 µg/mL: MIC90 ([2]; Klebsiella pneumoniae, read-out: MIC90) | MIC90 [4] | MIC [4, 15] | MIC90 ([12]; read-out: MIC90) | MIC90 [13] | MIC [13, 15]
1 µg/mL: MIC90 ([1]; Escherichia coli, read-out: MIC90) | MIC50 ([3]; Enterobacter cloacae, read-out: MIC50) | MIC ([3]; Enterobacter cloacae, read-out: Modal MIC (most frequent MIC))
4 to 16 µg/mL: MIC Range [9]
≤0.031-1 ^ μg/mL: MIC Range [1]
0.25 µg/mL: MIC50 ([1]; Escherichia coli, read-out: MIC50) | MIC ([1]; Escherichia coli, read-out: Modal MIC (most frequent MIC)) | MIC50 ([10]; Enterococcus faecalis, read-out: MIC50) | MIC ([10]; Enterococcus faecalis, read-out: Modal MIC (most frequent MIC))
16 µg/mL: MIC50 [5, 16] | MIC90 [5, 17] | MIC [5, 18] | MIC90 ([6]; All Enterococci (50), read-out: MIC90) | MIC90 ([7]; read-out: MIC90) | MIC ([8]; Staphylococcus aureus, MRSA, read-out: Modal MIC (most frequent MIC)) | MIC50 ([8]; Staphylococcus aureus, MRSA (37), read-out: MIC50) | MIC90 ([8]; Staphylococcus aureus, MRSA (37), read-out: MIC90) | MIC50 [9, 16] | MIC90 [9, 17] | MIC [9, 18]
4 µg/mL: MIC50 ([2]; Klebsiella pneumoniae, read-out: MIC50) | MIC ([2]; Klebsiella pneumoniae, read-out: Modal MIC (most frequent MIC)) | MIC90 ([3]; Enterobacter cloacae, read-out: MIC90) | MIC90 ([10]; Enterococcus faecalis, read-out: MIC90) | MIC [12, 15] | MIC50 [13] | MIC [14, 15]
2 to 16 µg/mL: MIC Range [5] | MIC Range ([8]; MRSA (37))
